# Experimental data: ChEMBL document CHEMBL1201862, “PubChem BioAssay data set” (2004)
# Calls of active or inactive are those of the source.
# Key:
# [1] = target: Voltage-dependent T-type calcium channel subunit alpha-1H (Homo sapiens, UniProt O95180); assay type: functional;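 note: channel activity triggered by adding a high calcium stimulation buffer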
# [2] = target: T1, Endoribonuclease toxin MazF (Escherichia coli K-12, UniProt P0AE70); test: fluorescent RNA oligo signal without MazF, dose response, counter-screen for MazEF activator project, biochemical, fluorescence, single-stranded RNase substrate (AID 588502); assay type: functional
# T1 sequence (P0AE70 whole entry): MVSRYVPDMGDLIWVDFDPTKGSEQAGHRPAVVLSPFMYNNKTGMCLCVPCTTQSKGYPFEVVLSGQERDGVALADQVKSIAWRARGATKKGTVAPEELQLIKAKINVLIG
# [3] = target: T1, Endoribonuclease toxin MazF; test: MazF toxin RNase activators, dose response, biochemical, fluorescence, single-stranded RNA substrate, uHTS hits (AID 588481); assay type: functional
# [4] = target: T2, Apoptotic protease-activating factor 1 (Homo sapiens, UniProt O14727); assay type: functional
# T2 sequence (O14727 whole entry): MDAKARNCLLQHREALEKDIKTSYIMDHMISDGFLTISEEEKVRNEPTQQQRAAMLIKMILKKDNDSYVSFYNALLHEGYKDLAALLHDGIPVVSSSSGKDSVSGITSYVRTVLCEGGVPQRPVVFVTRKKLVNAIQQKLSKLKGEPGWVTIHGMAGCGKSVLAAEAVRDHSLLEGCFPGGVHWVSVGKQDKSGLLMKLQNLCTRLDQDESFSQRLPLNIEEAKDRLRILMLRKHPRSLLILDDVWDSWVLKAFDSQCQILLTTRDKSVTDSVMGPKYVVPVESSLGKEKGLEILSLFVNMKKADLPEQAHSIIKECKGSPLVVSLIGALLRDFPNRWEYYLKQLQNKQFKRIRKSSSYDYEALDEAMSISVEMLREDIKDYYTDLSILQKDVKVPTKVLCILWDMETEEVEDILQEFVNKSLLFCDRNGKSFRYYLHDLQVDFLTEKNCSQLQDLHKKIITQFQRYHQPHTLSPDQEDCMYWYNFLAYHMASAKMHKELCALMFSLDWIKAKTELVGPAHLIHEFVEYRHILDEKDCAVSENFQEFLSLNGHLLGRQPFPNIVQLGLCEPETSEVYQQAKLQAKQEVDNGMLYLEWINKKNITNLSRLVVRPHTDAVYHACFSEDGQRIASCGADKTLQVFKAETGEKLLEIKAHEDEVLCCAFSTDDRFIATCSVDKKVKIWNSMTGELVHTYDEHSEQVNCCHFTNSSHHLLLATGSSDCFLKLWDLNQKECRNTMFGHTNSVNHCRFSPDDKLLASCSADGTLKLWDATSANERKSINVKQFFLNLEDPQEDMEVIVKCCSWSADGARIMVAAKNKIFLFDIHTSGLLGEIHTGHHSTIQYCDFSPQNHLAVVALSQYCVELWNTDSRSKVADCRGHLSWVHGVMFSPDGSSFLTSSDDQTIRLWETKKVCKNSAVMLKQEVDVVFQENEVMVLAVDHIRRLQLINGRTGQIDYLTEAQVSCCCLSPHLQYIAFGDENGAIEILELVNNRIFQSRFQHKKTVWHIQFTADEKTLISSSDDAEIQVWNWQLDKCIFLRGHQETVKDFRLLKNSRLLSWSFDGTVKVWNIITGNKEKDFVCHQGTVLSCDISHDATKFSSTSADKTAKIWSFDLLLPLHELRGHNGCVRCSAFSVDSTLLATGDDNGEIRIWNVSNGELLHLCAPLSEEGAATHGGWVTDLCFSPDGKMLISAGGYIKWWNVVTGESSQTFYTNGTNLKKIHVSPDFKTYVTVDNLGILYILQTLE
# Genome polyprotein = Genome polyprotein (dengue virus type 2, UniProt P29990); test: Dengue-2 NS5 methyltransferase inhibitors, primary screen, biochemical, confirmation dose response (AID 588689); assay type: functional
# [5] = cytotoxicity toward NIH3T3 fibroblasts, dose response, counter-screen, cell-based, ATP luminescence, mouse fibroblasts (AID 2010); assay type: functional;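 note: cells exposed to compound for about 90 hours before reading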
# [6] = inhibitors of intracellular T. cruzi replication, confirmation, NIH3T3 host cells, beta-gal luminescence (AID 2044); assay type: functional, cell-based;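 note: intracellular parasites grown in NIH/3T3 mouse fibroblasts as host cells; luminescent beta-galactosidase reporter signal from transgenic T. cruzi replicating inside host cells; inhibitors lower the luminescence signal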
# [7] = target: Heat shock protein HSP 90-alpha (Homo sapiens, UniProt P07900); assay type: functional, organism-based
# cells [8] = assay type: functional, cell-based
# cells [9] = assay type: functional, cell-based; remark: listed apart in the source
# Large T antigen = Large T antigen (Simian virus 40, UniProt P03070); assay type: functional, Betapolyomavirus macacae;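 note: Confirmatory-stage PubChem screen for compounds that inhibit SV40 T antigen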
# BJ [10] = test: cytotoxicity toward BJ-TERT fibroblasts, dose response, cell-based, RAS-independent, luminescence (AID 1933); assay type: functional; conditions: Homo sapiens
# [11] = cytotoxicity toward DRD oncogenic fibroblasts, dose response, cell-based, non-viral oncogenic, luminescence (AID 1934); assay type: functional; conditions: Homo sapiens
# BJ [12] = test: cells; assay type: functional, cell-based; conditions: Homo sapiens
# BJ [13] = test: cytotoxicity toward BJ-TERT-LT-ST fibroblasts, dose response, cell-based, RAS-independent, luminescence (AID 1935); assay type: functional; conditions: Homo sapiens;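 note: BJ fibroblasts immortalized with TERT plus LT and ST oncogenes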
# [14] = target: T3, Corticotropin-releasing factor receptor 2/Corticotropin-releasing factor-binding protein (Homo sapiens, UniProt P24387+Q13324); test: activators of CRF receptor 2 with binding protein – uHTS hits, confirmation (AID 602473); assay type: functional; conditions: read-out: EC50_Mean
# T3 sequence (Q13324 whole entry): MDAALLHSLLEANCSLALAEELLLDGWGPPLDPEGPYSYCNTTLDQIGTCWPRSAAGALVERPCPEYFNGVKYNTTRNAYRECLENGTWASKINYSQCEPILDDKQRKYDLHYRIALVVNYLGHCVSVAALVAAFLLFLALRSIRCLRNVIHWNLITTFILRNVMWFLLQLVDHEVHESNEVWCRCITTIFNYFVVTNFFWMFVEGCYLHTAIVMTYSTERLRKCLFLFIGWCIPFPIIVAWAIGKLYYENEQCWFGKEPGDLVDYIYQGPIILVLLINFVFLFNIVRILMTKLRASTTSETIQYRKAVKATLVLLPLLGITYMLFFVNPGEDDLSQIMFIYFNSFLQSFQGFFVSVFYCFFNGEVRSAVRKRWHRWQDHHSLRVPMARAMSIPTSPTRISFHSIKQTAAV
# T3 sequence (P24387 whole entry): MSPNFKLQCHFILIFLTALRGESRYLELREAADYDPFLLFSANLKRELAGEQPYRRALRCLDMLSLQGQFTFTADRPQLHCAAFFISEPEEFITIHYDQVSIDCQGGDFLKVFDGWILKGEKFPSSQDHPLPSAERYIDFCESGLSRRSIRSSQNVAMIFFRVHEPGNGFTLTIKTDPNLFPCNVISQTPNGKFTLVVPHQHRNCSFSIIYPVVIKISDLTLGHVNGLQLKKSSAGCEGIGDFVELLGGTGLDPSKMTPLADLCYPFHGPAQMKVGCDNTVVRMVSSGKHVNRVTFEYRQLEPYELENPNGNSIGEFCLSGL
# HEK293 [15] = test: cells; assay type: functional, cell-based; conditions: Homo sapiens
# HEK293 [16] = test: cells; assay type: functional, cell-based; conditions: Homo sapiens; remark: listed apart in the source
# HEK293 [17] = test: NOD2 signaling inhibitors in MDP-stimulated cells, cell-based, uHTS, luminescence (AID 2001); assay type: functional; conditions: Homo sapiens
# [18] = target: T4, RNA-binding protein pos-1 (Caenorhabditis elegans, UniProt G5EF15); test: inhibitors of POS-1/mex-3 RNA binding, dose response, biochemical, fluorescence polarization (AID 1964);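 note: purified POS-1 fused to maltose binding protein made in E. coli; potency of compounds blocking POS-1 binding to fluorescent RNA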
# T4 sequence (G5EF15 whole entry): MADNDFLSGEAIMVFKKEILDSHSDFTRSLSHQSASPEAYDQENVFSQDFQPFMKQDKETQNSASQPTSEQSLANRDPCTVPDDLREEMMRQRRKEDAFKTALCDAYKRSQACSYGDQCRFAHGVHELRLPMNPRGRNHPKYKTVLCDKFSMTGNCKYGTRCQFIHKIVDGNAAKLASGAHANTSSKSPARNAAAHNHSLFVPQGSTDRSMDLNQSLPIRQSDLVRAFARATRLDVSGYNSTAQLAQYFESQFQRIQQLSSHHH
# [19] = target: T5, Zinc finger protein mex-5 (Caenorhabditis elegans, UniProt Q9XUB2); test: MEX-5/TCR-2 RNA interaction inhibitors, dose response, biochemical, C. elegans, fluorescence polarization (AID 1960)
# T5 sequence (Q9XUB2 whole entry): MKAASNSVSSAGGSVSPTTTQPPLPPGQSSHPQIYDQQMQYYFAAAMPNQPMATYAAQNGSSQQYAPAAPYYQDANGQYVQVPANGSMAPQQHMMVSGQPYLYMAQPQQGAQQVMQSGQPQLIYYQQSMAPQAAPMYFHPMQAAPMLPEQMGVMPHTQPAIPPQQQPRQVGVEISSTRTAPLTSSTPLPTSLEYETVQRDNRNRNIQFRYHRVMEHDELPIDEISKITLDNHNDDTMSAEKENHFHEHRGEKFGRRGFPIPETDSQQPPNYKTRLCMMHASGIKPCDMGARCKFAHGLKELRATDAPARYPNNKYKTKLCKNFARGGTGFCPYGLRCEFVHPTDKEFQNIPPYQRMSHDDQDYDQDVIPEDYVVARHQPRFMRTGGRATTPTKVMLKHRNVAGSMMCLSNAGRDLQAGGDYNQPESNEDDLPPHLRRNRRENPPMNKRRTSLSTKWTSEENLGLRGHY
# Chain of Voltage-dependent T-type calcium channel subunit alpha-1H (O95180 whole entry): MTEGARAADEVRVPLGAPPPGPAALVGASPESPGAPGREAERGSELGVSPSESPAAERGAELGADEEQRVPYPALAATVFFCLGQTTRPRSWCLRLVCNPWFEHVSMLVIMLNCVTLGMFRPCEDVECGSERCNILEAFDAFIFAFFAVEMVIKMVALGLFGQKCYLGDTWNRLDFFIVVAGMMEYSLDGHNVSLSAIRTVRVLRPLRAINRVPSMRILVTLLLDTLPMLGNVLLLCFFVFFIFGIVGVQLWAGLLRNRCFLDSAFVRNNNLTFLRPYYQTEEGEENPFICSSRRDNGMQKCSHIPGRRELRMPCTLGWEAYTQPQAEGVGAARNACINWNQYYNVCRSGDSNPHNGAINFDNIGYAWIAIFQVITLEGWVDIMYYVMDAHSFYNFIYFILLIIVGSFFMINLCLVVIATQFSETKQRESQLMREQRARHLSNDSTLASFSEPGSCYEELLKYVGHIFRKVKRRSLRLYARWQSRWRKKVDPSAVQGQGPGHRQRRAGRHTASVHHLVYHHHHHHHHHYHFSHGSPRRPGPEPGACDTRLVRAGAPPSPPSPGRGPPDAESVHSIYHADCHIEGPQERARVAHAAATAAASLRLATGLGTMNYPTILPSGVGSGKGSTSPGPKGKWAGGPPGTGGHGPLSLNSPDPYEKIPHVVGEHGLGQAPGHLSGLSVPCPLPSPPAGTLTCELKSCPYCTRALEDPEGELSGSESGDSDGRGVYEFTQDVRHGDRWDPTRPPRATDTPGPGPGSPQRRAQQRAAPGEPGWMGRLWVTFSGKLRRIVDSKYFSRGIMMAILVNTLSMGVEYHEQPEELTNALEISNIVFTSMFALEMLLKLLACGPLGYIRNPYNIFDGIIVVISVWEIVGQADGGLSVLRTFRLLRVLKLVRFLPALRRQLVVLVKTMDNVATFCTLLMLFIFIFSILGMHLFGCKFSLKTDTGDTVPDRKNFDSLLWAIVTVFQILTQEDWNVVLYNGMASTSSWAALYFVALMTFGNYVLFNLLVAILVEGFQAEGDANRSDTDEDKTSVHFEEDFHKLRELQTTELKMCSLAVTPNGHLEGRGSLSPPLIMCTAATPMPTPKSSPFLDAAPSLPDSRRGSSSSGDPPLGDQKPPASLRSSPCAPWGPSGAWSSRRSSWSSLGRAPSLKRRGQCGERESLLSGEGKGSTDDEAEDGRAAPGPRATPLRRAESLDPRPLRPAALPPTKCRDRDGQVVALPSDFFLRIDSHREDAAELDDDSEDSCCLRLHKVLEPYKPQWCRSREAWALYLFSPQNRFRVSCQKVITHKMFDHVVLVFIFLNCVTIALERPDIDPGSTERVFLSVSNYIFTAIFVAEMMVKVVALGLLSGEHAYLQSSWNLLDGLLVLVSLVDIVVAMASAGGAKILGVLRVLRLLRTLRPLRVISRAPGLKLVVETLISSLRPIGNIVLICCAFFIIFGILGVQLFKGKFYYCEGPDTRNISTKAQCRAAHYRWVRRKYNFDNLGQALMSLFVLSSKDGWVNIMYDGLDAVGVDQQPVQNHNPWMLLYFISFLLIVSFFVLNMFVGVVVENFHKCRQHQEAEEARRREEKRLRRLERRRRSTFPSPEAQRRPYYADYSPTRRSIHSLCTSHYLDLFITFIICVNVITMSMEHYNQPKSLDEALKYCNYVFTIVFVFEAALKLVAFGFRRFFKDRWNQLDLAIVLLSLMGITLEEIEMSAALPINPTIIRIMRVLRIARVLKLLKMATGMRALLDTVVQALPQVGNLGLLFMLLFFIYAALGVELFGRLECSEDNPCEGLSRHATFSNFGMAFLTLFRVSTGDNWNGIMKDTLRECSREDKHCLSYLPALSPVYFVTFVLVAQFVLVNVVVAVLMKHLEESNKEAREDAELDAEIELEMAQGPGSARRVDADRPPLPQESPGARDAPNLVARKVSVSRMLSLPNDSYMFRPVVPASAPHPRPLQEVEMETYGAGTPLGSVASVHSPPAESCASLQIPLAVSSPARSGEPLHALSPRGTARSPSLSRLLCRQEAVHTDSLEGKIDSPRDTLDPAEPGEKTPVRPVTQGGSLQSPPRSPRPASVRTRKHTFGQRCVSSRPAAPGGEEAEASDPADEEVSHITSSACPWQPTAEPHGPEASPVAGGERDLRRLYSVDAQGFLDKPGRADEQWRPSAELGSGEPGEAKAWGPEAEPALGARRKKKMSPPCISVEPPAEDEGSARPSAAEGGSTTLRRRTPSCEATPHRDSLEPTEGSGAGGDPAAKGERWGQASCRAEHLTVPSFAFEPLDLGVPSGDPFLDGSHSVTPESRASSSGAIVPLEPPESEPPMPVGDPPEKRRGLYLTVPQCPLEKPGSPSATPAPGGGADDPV
# Chain of Large T antigen (P03070 whole entry): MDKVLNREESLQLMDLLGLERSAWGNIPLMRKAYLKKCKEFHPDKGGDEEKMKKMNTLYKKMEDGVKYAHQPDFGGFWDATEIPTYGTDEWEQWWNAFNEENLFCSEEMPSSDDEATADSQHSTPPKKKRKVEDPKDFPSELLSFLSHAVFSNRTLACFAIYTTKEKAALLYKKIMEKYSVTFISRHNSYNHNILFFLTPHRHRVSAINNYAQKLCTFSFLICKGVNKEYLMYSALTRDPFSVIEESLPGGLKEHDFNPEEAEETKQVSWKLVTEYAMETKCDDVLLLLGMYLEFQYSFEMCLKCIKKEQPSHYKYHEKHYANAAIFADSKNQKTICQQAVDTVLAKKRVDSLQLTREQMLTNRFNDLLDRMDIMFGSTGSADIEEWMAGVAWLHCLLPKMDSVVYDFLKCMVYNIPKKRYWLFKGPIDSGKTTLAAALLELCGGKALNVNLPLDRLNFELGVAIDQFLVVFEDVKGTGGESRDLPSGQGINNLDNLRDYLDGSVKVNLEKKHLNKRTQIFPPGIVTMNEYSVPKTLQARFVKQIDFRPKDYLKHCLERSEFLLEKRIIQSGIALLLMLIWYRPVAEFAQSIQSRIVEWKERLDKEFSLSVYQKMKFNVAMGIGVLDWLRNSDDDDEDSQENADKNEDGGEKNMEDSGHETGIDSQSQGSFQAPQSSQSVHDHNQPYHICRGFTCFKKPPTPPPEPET
# Chain of Genome polyprotein (P29990 2492-3391 limits assumed): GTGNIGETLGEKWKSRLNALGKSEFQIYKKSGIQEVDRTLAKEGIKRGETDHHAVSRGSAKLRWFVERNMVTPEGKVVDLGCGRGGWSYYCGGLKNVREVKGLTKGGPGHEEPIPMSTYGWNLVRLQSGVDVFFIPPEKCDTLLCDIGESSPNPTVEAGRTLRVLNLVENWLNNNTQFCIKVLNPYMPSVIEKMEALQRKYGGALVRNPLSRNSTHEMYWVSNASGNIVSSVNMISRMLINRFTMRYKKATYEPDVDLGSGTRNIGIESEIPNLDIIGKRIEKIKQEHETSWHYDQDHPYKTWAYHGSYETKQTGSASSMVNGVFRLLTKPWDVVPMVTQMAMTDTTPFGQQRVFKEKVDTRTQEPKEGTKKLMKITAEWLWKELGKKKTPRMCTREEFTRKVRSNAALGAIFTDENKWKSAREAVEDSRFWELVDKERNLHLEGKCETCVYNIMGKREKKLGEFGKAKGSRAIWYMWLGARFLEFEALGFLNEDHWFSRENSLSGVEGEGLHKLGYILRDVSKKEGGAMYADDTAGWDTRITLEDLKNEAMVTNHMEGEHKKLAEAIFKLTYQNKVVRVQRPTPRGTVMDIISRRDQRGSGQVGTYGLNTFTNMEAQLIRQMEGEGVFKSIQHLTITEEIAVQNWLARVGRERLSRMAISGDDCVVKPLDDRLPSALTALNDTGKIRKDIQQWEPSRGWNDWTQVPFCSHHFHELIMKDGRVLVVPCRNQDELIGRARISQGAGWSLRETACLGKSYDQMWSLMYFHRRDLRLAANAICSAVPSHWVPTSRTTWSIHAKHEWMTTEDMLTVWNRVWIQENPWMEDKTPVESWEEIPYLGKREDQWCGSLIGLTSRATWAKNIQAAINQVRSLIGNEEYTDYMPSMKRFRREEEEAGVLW
structure (smiles),measurement,setting,value
Cc1ccccc1-c1nc(CS(=O)(=O)CC(=O)N(C)C2CCCCC2)c(C)o1,EC50,[1],1.26 µM (active)
COc1ccc(Br)c(C(=O)OCc2cc(=O)oc3cc(C)ccc23)c1,EC50,[2],> 99 µM (inactive)
same,EC50,[3],> 99 µM (inactive)
CN(CC(=O)Nc1ccc(Cl)c(C(F)(F)F)c1)C(=O)CC1Sc2ccccc2NC1=O (stereo unspecified),IC50,[4],33.6 µM (active)
O=C(CSCC(=O)N1CCCCC1)Nc1nc(-c2cccs2)cs1,EC50,[1],0.595 µM (active)
NC(=O)COc1ccc(/C=C2\C(=O)ON=C2c2ccccc2)cc1,IC50,Genome polyprotein,67.7 µM (active)
COc1ccc2c(c1)Cc1sc(NC(=O)c3cccs3)nc1-2,IC50,[4],28.7 µM (active)
same,EC50,[5],> 60 µM (not active)
same,EC50,[6],2.01 µM (active)
O=[N+]([O-])c1ccc([S+]([O-])Cc2ccccc2)c([N+](=O)[O-])c1 (stereo unspecified),AC50,[7],2.17 µM (active)
CCCn1/c(=N/C(=O)c2c(-c3c(F)cccc3Cl)noc2C)c(C(=O)OCC)cc2c(=O)n3ccccc3nc21,EC50,cells [8],> 350 µM (not active)
same,EC50,cells [9],> 350 µM (not active)
O=C(CCS(=O)(=O)c1ccc(Br)cc1)N1CCN(c2ccccc2Cl)CC1,EC50,[1],4.8 µM (active)
CN(C)c1ccc(NC(=O)CSc2nnc(-c3ccco3)c(-c3ccco3)n2)cc1,IC50,Large T antigen,6.98 µM (active)
COc1ccc(N2CCN(C(=O)c3ccc(Br)cc3)CC2)c([N+](=O)[O-])c1,AC50,[7],0.691 µM (active)
O=C(COc1ccccc1)N(Cc1cccc(F)c1)C1CCS(=O)(=O)C1 (stereo unspecified),EC50,cells [8],> 350 µM (not active)
same,EC50,cells [9],> 350 µM (not active)
O=C(CCC(=O)N1CCN(c2ccc(O)cc2)CC1)c1cccs1,IC50,Large T antigen,5.54 µM (active)
CN1CCN(c2ccc([N+](=O)[O-])cc2C(=O)c2ccccc2)CC1,EC50,BJ [10],39.6 µM (active)
same,EC50,[11],> 150 µM (not active)
same,EC50,BJ [12],> 150 µM (not active)
same,EC50,BJ [13],> 150 µM (not active)
COC(=O)CSc1cc([N+](=O)[O-])cc2c1c(C1OCCO1)nn2-c1ccccc1,EC50,[2],> 99 µM (inactive)
same,EC50,[3],> 99 µM (inactive)
Nc1c(C(=O)Nc2nccs2)sc2nc(-c3cccs3)cc(C(F)(F)F)c12,EC50,[2],> 99 µM (inactive)
same,EC50,[3],> 99 µM (inactive)
same,EC50,[14],2.76 µM (active)
COc1ccccc1N1CCN(C(=O)C2CCCN(S(=O)(=O)c3ccc4c(c3)oc(=O)n4C)C2)CC1 (stereo unspecified),IC50,HEK293 [15],> 20 µM (inactive)
same,IC50,HEK293 [16],> 20 µM (inactive)
same,IC50,HEK293 [17],> 20 µM (inactive)
COc1ccc(CSCC(=O)Nc2ccc(S(=O)(=O)N3CCCCCC3)cc2)cc1,EC50,cells [8],> 350 µM (not active)
same,EC50,cells [9],> 350 µM (not active)
CCCCN1C(=O)/C(=C/C=C/C=C/Nc2ccccc2)SC1=S,EC50,BJ [10],31.6 µM (active)
same,EC50,[11],19.8 µM (active)
same,EC50,BJ [12],24.6 µM (active)
same,EC50,BJ [13],> 150 µM (not active)
O=C(/C=C/c1ccc2c(c1)OCO2)Nc1cccnc1,EC50,cells [8],6.64 µM (active)
same,EC50,cells [9],> 350 µM (not active)
Oc1[nH]c2ccccc2c1N=Nc1ccccc1,EC50,[18],7.37 µM (inconclusive)
same,EC50,[2],54.6 µM (inactive)
same,EC50,[3],> 99 µM (inactive)
same,EC50,[19],18.3 µM (inconclusive)
Cc1nonc1NC(=O)CSc1nnc(-c2ccoc2C)n1-c1cccc(Cl)c1,EC50,[1],7.83 µM (active)
Cc1ccc2c(CC(=O)NCC3COc4ccccc4O3)coc2c1 (stereo unspecified),EC50,[1],0.986 µM (active)
CCOC(=O)c1ccc(N2C(=O)CC(N3CCC(O)(c4ccc(Cl)cc4)CC3)C2=O)cc1 (stereo unspecified),AC50,[7],2.97 µM (active)
Cc1cc(C)n2nc(C(=O)N/N=C/c3ccc(O)cc3)nc2n1,IC50,Large T antigen,43.9 µM (active)
